Data reported in publication PMC8507746, “The FHP01 DDX3X Helicase Inhibitor Exerts Potent Anti-Tumor Activity In Vivo in Breast Cancer Pre-Clinical Models” (Cancers, 2021).
Several values for one entry are separate records, joined by “and”; a condition that tells them apart may be missing. Identical values can stand only once.

Legend:
MCF7 cells = assay: Cell viability / cytotoxicity assay (cell counting); format: cell-based; conditions: Homo sapiens, MCF7, 72 h
Protocol: (§1) Cells were seeded at 3–5 × 10^4 cells/well density (depending on cell lines) in 12-well plates, in triplicate, and maintained at 37 °C in 5% CO2. After 24 h, cells were treated with different concentrations of indicated drugs in a range from 0 to 100 μM (0, 0.1, 1, 10, 50, 100 μM). After 72 h incubation, cells were washed in PBS and harvested. Cell number of each sample was determined with Z2 Coulter Counter (Beckman Coulter, Brea, CA, USA), in triplicate. Data about cell viability were plotted in GraphPad Prism 8.0 software (GraphPad Software, San Diego, CA, USA) to draw dose-response curve and to calculate IC50.

T47D cells = assay: as above; format: cell-based; conditions: Homo sapiens, 72 h
Protocol: as §1

[1] = as above; format: cell-based; conditions: human, MCF10A control cells
Protocol: as §1

SKBR3 cells = assay: as above; format: cell-based; conditions: Homo sapiens, SK-BR-3; SKBR3, 72 h
Protocol: as §1

[2] = Pharmacokinetic profiling, plasma concentration in mice; format: in vivo, Swiss Albino mice
Protocol: These studies were performed at the GVKBioscience Pvt. LTD Contract Research and Development Organization (CRDO). Animals were housed in cages with clean bedding. Adult Swiss Albino male mice (weight = 20–35 g) were maintained and monitored for good health in accordance with GVKBioscience Pvt. LTD Test Facility SOPs and at the discretion of the laboratory animal veterinarian. Certified rodent diet was provided, and water was available ad libitum. A periodic analysis of the water was performed, and the results have been archived at the Test Facility. Environmental controls for the animal room were set to maintain a temperature of 22 to 25 °C, humidity of 40–70% relative humidity, and a 12-h light/12-h dark cycle. Animals have been dosed i.v. with 1 mg/kg of FHP01 i.p. with 10 mg/kg of compound or p.o. through gastric gavage needle with 50 mg/kg of compound. Next, mice were anesthetized using gaseous anesthesia and blood samples were collected at each time point, from 3 mice of respective group. After collection of blood samples at each time point, the blood samples were stored on ice, prior to centrifugation. Blood samples were centrifuged at 1540 rcf (5000 rpm), 4 °C for 10 min to separate plasma. Plasma was transferred to pre-labeled micro-centrifuge tubes and promptly frozen at −80 °C until analysis. Samples have been identified by test item, group, animal number, and collection time point. A fit-for-purpose bioanalytical method was developed for analyzing the plasma samples. One set of nine standards have been run before the sample batch and used for plotting the calibration curve. Quality control (QC) samples have been prepared at a minimum of three concentrations, i.e., LQC (not more than 5 times to that of lowest standard concentration), HQC (not less than 75% of the highest standard concentration), and MQC (between the low and high concentration). Minimum of 6 QC samples (three concentrations in duplicate). One Set of QC (LQC, MQC, and HQC) samples have been analyzed before and after the sample batch.

[3] = system: DDX3X and β-catenin in MDA MB 231 tumors; assay: Western blot of DDX3X and β-catenin in tumors from treated mice; format: in vivo, athymic nude mice; conditions: 45 mg/kg i.p. three times per week for 4 weeks, individual tumors
Protocol: (§2) Cells (1 × 10^5) were seeded in 6-well plates. After 24 h, cells were treated for indicated times with DMSO (vehicle) or FHP01 or XAV939 (Merck). After treatments, cells were washed with cold PBS and total protein extracts obtained by adding 80 µL of “RIPA Lysis buffer” (50 mM Tris-HCl pH 8.0, 150 mM NaCl, 0.5% Sodium deoxycholate, 0.1% SDS, 1% NP-40, 2 mM Orthovanadate, 2mM Sodium fluoride, 1mM Dithiothreitol and 1× protease inhibitors). After mechanicals detachment with cell scrapers, total lysates were collected in tubes, vortexed, and incubated for 15 min on ice. Tumors from mice were collected and disrupted by bead homogenization in Lysing Matrix D tubes using a FastPrep-24 5G homogenizer (MP Biomedicals, Solon, OH, USA) filled with “RIPA Lysis buffer” w:v. Next, samples were centrifuged for 10 min at 16,000× g, and supernatants were collected, representing total cell lysates.
(§3) Densitometric analysis of western blots was performed with NIH Image J (National Institutes of Health).

β-catenin = assay: Western blot of β-catenin protein levels in MDA MB 231 cells; format: cell-based, human; conditions: MDA MB 231, 6 μM, 48 to 72 h
Protocol: as §2, §3

- plasma concentration profile ([2]; 1 mg/kg i.v.): rapidly decreasing plasma concentration
- plasma concentration profile ([2]; 10 mg/kg i.p.): high plasma concentration
- plasma concentration profile ([2]; 50 mg/kg p.o.): high plasma concentration
Compound: CCCCc1cn(-c2ccc(NC(=O)Nc3ccccc3C(F)(F)F)cc2)nn1 [FHP01]
- IC50 (MCF7 cells): 12.4 µM
- IC50 (T47D cells): 10.6 µM
- IC50 at 72 h [1]: 28.7 µM
- IC50 (SKBR3 cells): 13.5 µM
- DDX3X : ERK2 in tumors ([3]; Ctrl 0.64, 1.00, 0.60): 0.01 (2×) and 0.13
- β-Catenin : ERK2 in tumors ([3]; Ctrl 0.64, 1.00, 0.89): 0.64 and 0.79 and 0.70
- β-catenin protein levels (β-catenin): time-dependent reduction
